In data set [1] the test system is Heliothis virescens (Tobacco budworm). In words: Heliothis virescens egg test on artificial diet. The data set is classed as in vivo. Conditions: 96 h, read-out: control of Heliothis virescens. As to the method: (§1) This Example illustrates the insecticidal and acaricidal properties of compounds of formula (I). The tests were performed as follows:
(§2) Cotton leaf discs were placed on agar in a 24-well microtiter plate and sprayed with test solutions at an application rate of 200 ppm. After drying, the leaf discs were infested with 5 L1 larvae. The samples were checked for mortality, feeding behavior, and growth regulation 3 days after treatment (DAT). The following compound gave at least 80% control of Spodoptera littoralis: A1, A2, A5, A6, A7, A8, A10, A11, A12, A13, A14, A15, A16, A17, A18, A19, A21, A22, A23, A24, A25, A30, A31, A32, A33, A34, A35, A39, A40, A41 A42, A43, A44, A45, A46, A47, A48, A49, A50, A51, A53, A54, A55, A59, A60, A61, A62. Heliothis virescens (Tobacco budworm): Eggs (0-24 h old) were placed in 24-well microtiter plate on artificial diet and treated with test solutions at an application rate of 200 ppm (concentration in well 18 ppm) by pipetting. After an incubation period of 4 days, samples were checked for egg mortality, larval mortality, and growth regulation. The following compound gave at least 80% control of Heliothis virescens: A1, A2, A3, A4, A5, A6, A7, A8, A10, A11, A12, A13, A14, A15, A16, A18, A19, A21, A22, A24, A25, A30, A31, A32, A33, A34, A35, A37, A38, A39, A40, A42, A43, A44, A45, A46, A47, A48, A49, A50, A51, A55, AA57, A58, A59, A60, A61, A62. Plutella xylostella (Diamond back moth): 24-well microtiter plate (MTP) with artificial diet was treated with test solutions at an application rate of 200 ppm (concentration in well 18 ppm) by pipetting. After drying, the MTP's were infested with L2 larvae (7-12 per well). After an incubation period of 6 days, samples were checked for larval mortality and growth regulation. The following compound gave at least 80% control of Plutella xylostella: A1, A2, A5, A6, A7, A8, A9, A10, A11, A12, A13, A14, A15, A16, A17, A18, A19, A20, A21, A22, A24, A25, A30, A31, A32, A33, A34, A35, A37, A38, A39, A40, A42, A43, A44, A45, A46, A47, A48, A49, A50, A51, A52, A53, A54, A55, A57, A58, A59, A60, A61, A62, B3. Diabrotica balteata (Corn root worm): A 24-well microtiter plate (MTP) with artificial diet was treated with test solutions at an application rate of 200 ppm (concentration in well 18 ppm) by pipetting. After drying, the MTP's were infested with L2 larvae (6-10 per well). After an incubation period of 5 days, samples were checked for larval mortality and growth regulation. The following compound gave at least 80% control of Diabrotica balteata: A1, A2, A5, A6, A7, A10, A11, A12, A13, A14, A15, A16, A17, A18, A19, A21, A22, A24, A25, A30, A31, A32, A33, A34, A35, A38, A39, A40, A42, A43, A44, A45, A46, A47, A48, A49, A50, A59, A60, A61, A62. Thrips tabaci (Onion thrips): Sunflower leaf discs were placed on agar in a 24-well microtiter plate and sprayed with test solutions at an application rate of 200 ppm. After drying, the leaf discs were infested with an […] population of mixed ages. After an incubation period of 7 days, samples were checked for mortality. The following compounds gave at least 80% control of Thrips tabaci: A1, A2, A5, A6, A7, A8, A10, A12, A13, A14, A15, A16, A17, A18, A19, A21, A24, A25, A30, A31, A32, A33, A34, A35, A39, A42, A43, A44, A45, A46, A47, A48, A49, A50, A51, A53, A54, A57, A58, A59, A60, A61, A62. Tetranychus urticae (Two-spotted spider mite): Bean leaf discs on agar in 24-well microtiter plates were sprayed with test solutions at an application rate of 200 ppm. After drying, the leaf discs are infested with mite populations of mixed ages. 8 days later, discs are checked for egg mortality, larval mortality, and adult mortality. The following compound gave at least 80% control of Tetranychus urticae: A1, A2, A4, A5, A6, A7, A8, A10, A11, A12, A13, A14, A15, A16, A17, A18, A19, A20, A21, A22, A30, A31, A32, A33, A34, A35, A39, A40, A41, A42, A43, A44, A45, A46, A47, A48, A49, A50, A51, A53, A54, A55, A57, A59, A60, A61, A62.

Data set [2] deals with Tetranychus urticae (Two-spotted spider mite). The data set can be described thus: Tetranychus urticae bean leaf disc spray test. Conditions: foliar, 192 h, read-out: control of Tetranychus urticae. Format: in vivo. The procedure: as §1, §2
Data set [3] deals with Plutella xylostella (Diamond back moth). The data set can be described thus: Plutella xylostella larvae test on artificial diet. The data set is classed as in vivo. Conditions: 144 h, 200 ppm (concentration in well 18 ppm), artificial diet, L2 larvae, larval mortality and growth regulation after 6 days. The procedure: as §1, §2
Data set [4] has as its system Diabrotica balteata (Corn root worm). The data set can be described thus: Diabrotica balteata larvae test on artificial diet. Format: in vivo. Conditions: 120 h, 200 ppm (concentration in well 18 ppm), artificial diet, L2 larvae, larval mortality and growth regulation after 5 days. The procedure: as §1, §2
Data set [5] relates to Spodoptera littoralis (Egyptian cotton leafworm). In words: Spodoptera littoralis cotton leaf disc spray test. Format: in vivo. The conditions noted are these: foliar, 72 h, 200 ppm spray on cotton leaf discs, L1 larvae, mortality, feeding behavior, growth regulation 3 days after treatment. As to the method: as §1
Spodoptera littoralis (Egyptian cotton leafworm):
as §2, with “The following compound gave at least 80% control of Tetranychus urticae: A1, A2, A4, A5, A6, A7, A8, A10, A11, A12, A13, A14, A15, A16, A17, A18, A19, A20, A21, A22, A30, A31, A32, A33, A34, A35, A39, A40, A41, A42, A43, A44, A45, A46, A47, A48, A49, A50, A51, A53, A54, A55, A57, A59, A60, A61, A62.” left out

Data set [6] relates to Thrips tabaci (Onion thrips). In words: Thrips tabaci sunflower leaf disc spray test. The data set is classed as in vivo. Conditions: foliar, 168 h, 200 ppm spray on sunflower leaf discs, population of mixed ages, mortality after 7 days. As to the method: as §1, §2
Where [7] appears, read: 200 ppm spray on bean leaf discs, mite populations of mixed ages, egg, larval and adult mortality 8 days later.
The mark [8] stands for this setting: 200 ppm (concentration in well 18 ppm), eggs 0-24 h old on artificial diet, egg mortality, larval mortality, growth regulation after 4 days.

Where two headings read alike, the source gives them in different places.

For the molecule `Cc1cc(N2CC2(c2cc(Cl)cc(Cl)c2)C(F)(F)F)ccc1C(=O)NC1(C)CSC1` (stereo not drawn) [A3], the pest or weed control at 200 ppm in data set [1] is at least 80%.

Turning to `Cc1cc(N2CC2(c2cc(Cl)cc(Cl)c2)C(F)(F)F)ccc1C(=O)NC1CSC1` (stereo not drawn) [A4], the pest or weed control at 200 ppm in data set [2] and in data set [1] was at least 80% throughout.

`Cc1cc(N2CC(c3cc(Cl)cc(Cl)c3)(C(F)(F)F)OC2=O)ccc1C(=O)NC1(C)CSC1` (stereo not drawn) [A9]: the pest or weed control at 200 ppm in data set [3] is at least 80%.

For the molecule `Cc1cc(C2CC(c3cc(Cl)cc(Cl)c3)(C(F)(F)F)ON2C)ccc1C(=O)NC1(C)CSC1` (stereo not drawn) [A20], the pest or weed control at 200 ppm in data set [3] and in data set [2] (setting [7]) was at least 80% throughout.

Molecule `O=C(NC1C[S+]([O-])C1)c1ccc(C2=NOC(c3cc(Cl)cc(Cl)c3)(C(F)(F)F)C2)c2nsnc12` (stereo not drawn) [A24] showed a pest or weed control at 200 ppm in data set [3] of at least 80%.

The molecule `O=C(NC1CSC1)c1ccc(C2=NOC(c3cc(Cl)cc(Cl)c3)(C(F)(F)F)C2)c2nsnc12` (stereo not drawn) [A25] gave a pest or weed control at 200 ppm in data set [3] of at least 80%.

Turning to `C/C=C1\C(c2ccc(C(=O)NC3CSC3)c(C)c2)=NOC1(c1cc(Cl)cc(Cl)c1)C(F)(F)F` (stereo not drawn) [A30], the pest or weed control at 200 ppm in data set [3], in data set [1] (setting [8]) and in data set [4] was at least 80% throughout.

Regarding `O=C(NC1C[S+]([O-])C1)c1cccc2c(C3=NOC(c4cc(Cl)cc(Cl)c4)(C(F)(F)F)C3)cccc12` (stereo not drawn) [A37], the pest or weed control at 200 ppm in data set [3] and in data set [1] (setting [8]) was at least 80% in each case.

With `O=C(NC1CSC1)c1cccc2c(C3=NOC(c4cc(Cl)cc(Cl)c4)(C(F)(F)F)C3)cccc12` (stereo not drawn) [A38], the pest or weed control at 200 ppm in data set [3], in data set [1] (setting [8]) and in data set [4] was at least 80% throughout.

For the molecule `Cc1cc(C2=NOC(c3cc(Cl)cc(Cl)c3)(C(F)(F)F)C2S(C)(=O)=O)ccc1C(=O)NC1CSC1` (stereo not drawn) [A41], the pest or weed control at 200 ppm in data set [5] is at least 80%.

For the molecule `Cc1cc(C2=NOC(c3cc(Cl)cc(Cl)c3)(C(F)(F)F)C2O)ccc1C(=O)NC1(C)CSC1` (stereo not drawn) [A52], in data set [3], the pest or weed control at 200 ppm is at least 80%.

Consider `Cc1cc(C2=NOC(c3cc(Cl)cc(Cl)c3)(C(F)(F)F)/C2=N/O)ccc1C(=O)NC1C[S+]([O-])C1` (stereo not drawn) [A57], for which the pest or weed control at 200 ppm in data set [6], in data set [3], in data set [2] (setting [7]) and in data set [1] (setting [8]) was at least 80% each time.

The melting point is the temperature, or range, at which the solid turns liquid. Molecule `Cc1nn(C2=NOC(c3cc(Cl)cc(Cl)c3)(C(F)(F)F)C2)cc1C(=O)NC1CSC1` (stereo not drawn) [B1] returned a melting point of 177 to 180 °C.

As to `O=C(NC1CSC1)c1ccn(C2=NOC(c3cc(Cl)cc(Cl)c3)(C(F)(F)F)C2)n1` (stereo not drawn) [B3], in data set [3], the pest or weed control at 200 ppm was at least 80%.

The record behind these values is patent US9216973B2, “Insecticidal compounds” (Syngenta Participations AG, priority 2008, dated 2015).
